Measured values published in patent US20230085307A1, “PYRIDAZINONE COMPOUND AND HERBICIDE” (NISSAN CHEMICAL CORPORATION, priority 2019, published 2023).

test system: chickweed; assay: Test Example 4: herbicidal effect by soil treatment (Table 19, symbol P); assay type: in vivo, common chickweed (Stellaria media); settings: amount of applied herbicide 320 g/ha
Method in brief: (§1)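 Three weeks of greenhouse growth at 25° C. to 30° C. followed a uniform surface spray of water-diluted emulsion at a predetermined herbicide amount. Seeds had been sown beforehand under about 1.5 cm of sterilized diluvial soil. Grading followed criteria set out in an earlier test.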

Structure (SMILES)	herbicidal effect on P: chickweed
CCOC(=O)Oc1c(C)nn(C)c(=O)c1-c1c(-c2ccc(OC(F)F)cc2)sc2ccc(F)cc12 [2-292]	4 (Herbicidal rate of 70% or more and less than 90%)
Cc1nn(C)c(=O)c(-c2c(-c3ccc(OC(F)F)cc3)sc3ccc(F)cc23)c1OC(=O)OCCCl [2-293]	4 (Herbicidal rate of 70% or more and less than 90%)

test system: velvetleaf; assay: Test Example 5: herbicidal effect by foliage application, plastic box (Table 20, symbol M); assay type: in vivo, velvetleaf (Abutilon theophrasti); settings: foliage application, AAH 320 g/ha, evaluated three weeks after application
Method in brief: (§2)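 Plants sown in sterilized diluvial soil and grown 14 days in a greenhouse at 25° C to 30° C, then sprayed on the foliage with the compound's emulsion diluted in water to a predetermined herbicide amount. Injury to weeds and crops scored three weeks after application on a visual rating scale.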

Structure (SMILES)	M: velvetleaf, herbicidal effect (criteria 0-5)
CCOC(=O)Oc1c(C)nn(C)c(=O)c1-c1c(-c2ccc(OC(F)F)cc2)sc2ccc(F)cc12 [2-292]	5 (Herbicidal rate of 90% or more (almost completely withered))
Cc1nn(C)c(=O)c(-c2c(-c3ccc(OC(F)F)cc3)sc3ccc(F)cc23)c1OC(=O)OCCCl [2-293]	5 (Herbicidal rate of 90% or more (almost completely withered))

test system: velvetleaf; assay: Test Example 4: herbicidal effect by soil treatment (Table 19, symbol M); assay type: in vivo, velvetleaf (Abutilon theophrasti); settings: amount of applied herbicide 320 g/ha
Method in brief: as §1

Structure (SMILES)	herbicidal effect on M: velvetleaf
CCOC(=O)Oc1c(C)nn(C)c(=O)c1-c1c(-c2ccc(OC(F)F)cc2)sc2ccc(F)cc12 [2-292]	3 (Herbicidal rate of 40% or more and less than 70%)
Cc1nn(C)c(=O)c(-c2c(-c3ccc(OC(F)F)cc3)sc3ccc(F)cc23)c1OC(=O)OCCCl [2-293]	5 (Herbicidal rate of 90% or more (almost completely withered))

test system: oval-leafed pondweed; assay: Test Example 1: herbicidal activity, application before weed generation under submerged conditions (Table 16, symbol C); assay type: in vivo, oval-leafed pondweed (Monochoria vaginalis); settings: 320 g/ha applied herbicide
Method in brief: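 Submerged Wagner pots (alluvial soil, 4 cm water) sown with weed seeds and planted with 2.5-leaf rice seedlings; emulsifiable concentrate diluted in water applied to water surface on sowing day. Held in greenhouse at 25-30 °C; injury scored 0-5 by herbicidal rate after three weeks.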

Structure (SMILES)	Herbicidal effect on C: oval-leafed pondweed (grade 0-5)
CCOC(=O)Oc1c(C)nn(C)c(=O)c1-c1c(-c2ccc(OC(F)F)cc2)sc2ccc(F)cc12 [2-292]	4 (Herbicidal rate of 70% or more and less than 90%)
Cc1nn(C)c(=O)c(-c2c(-c3ccc(OC(F)F)cc3)sc3ccc(F)cc23)c1OC(=O)OCCCl [2-293]	4 (Herbicidal rate of 70% or more and less than 90%)

test system: windgrass; assay: Test Example 5: herbicidal effect by foliage application, plastic box (Table 20, symbol L); assay type: in vivo, windgrass (Apera spica-venti); settings: foliage application, AAH 320 g/ha, evaluated three weeks after application
Method in brief: as §2

Structure (SMILES)	L: windgrass, herbicidal effect (criteria 0-5)
CCOC(=O)Oc1c(C)nn(C)c(=O)c1-c1c(-c2ccc(OC(F)F)cc2)sc2ccc(F)cc12 [2-292]	2 (Herbicidal rate of 20% or more and less than 40%)
Cc1nn(C)c(=O)c(-c2c(-c3ccc(OC(F)F)cc3)sc3ccc(F)cc23)c1OC(=O)OCCCl [2-293]	4 (Herbicidal rate of 70% or more and less than 90%)

test system: blackgrass; assay: Test Example 4: herbicidal effect by soil treatment (Table 19, symbol J); assay type: in vivo, blackgrass (Alopecurus myosuroides); settings: amount of applied herbicide 320 g/ha
Method in brief: as §1

Structure (SMILES)	herbicidal effect on J: blackgrass
CCOC(=O)Oc1c(C)nn(C)c(=O)c1-c1c(-c2ccc(OC(F)F)cc2)sc2ccc(F)cc12 [2-292]	3 (Herbicidal rate of 40% or more and less than 70%)
Cc1nn(C)c(=O)c(-c2c(-c3ccc(OC(F)F)cc3)sc3ccc(F)cc23)c1OC(=O)OCCCl [2-293]	5 (Herbicidal rate of 90% or more (almost completely withered))

test system: Japanese bulrush; assay: Test Example 2: herbicidal activity, application during weed generation under submerged conditions (Table 17, symbol B); assay type: in vivo, Japanese bulrush (Schoenoplectus juncoides); settings: AAH 320 g/ha; application during weed generation, submerged conditions
Method in brief: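 Steps: fill Wagner pots with alluvial soil; add water to give 4 cm depth; sow the species mixed; grow under glass at 25–30° C.; at 1–2 leaves apply water-diluted emulsion formulation to the water surface at a fixed herbicide amount; score after 3 weeks.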

Structure (SMILES)	herbicidal effect rating, B: Japanese bulrush
CCOC(=O)Oc1c(C)nn(C)c(=O)c1-c1c(-c2ccc(OC(F)F)cc2)sc2ccc(F)cc12 [2-292]	5 (Herbicidal rate of 90% or more (almost completely withered))
Cc1nn(C)c(=O)c(-c2c(-c3ccc(OC(F)F)cc3)sc3ccc(F)cc23)c1OC(=O)OCCCl [2-293]	3 (Herbicidal rate of 40% or more and less than 70%)

test system: lambsquarters; assay: Test Example 5: herbicidal effect by foliage application, plastic box (Table 20, symbol O); assay type: in vivo, lambsquarters (Chenopodium album); settings: foliage application, AAH 320 g/ha, evaluated three weeks after application
Method in brief: as §2

Structure (SMILES)	O: lambsquarters, herbicidal effect (criteria 0-5)
CCOC(=O)Oc1c(C)nn(C)c(=O)c1-c1c(-c2ccc(OC(F)F)cc2)sc2ccc(F)cc12 [2-292]	5 (Herbicidal rate of 90% or more (almost completely withered))
Cc1nn(C)c(=O)c(-c2c(-c3ccc(OC(F)F)cc3)sc3ccc(F)cc23)c1OC(=O)OCCCl [2-293]	5 (Herbicidal rate of 90% or more (almost completely withered))

test system: lambsquarters; assay: Test Example 4: herbicidal effect by soil treatment (Table 19, symbol O); assay type: in vivo, lambsquarters (Chenopodium album); settings: amount of applied herbicide 320 g/ha
Method in brief: as §1

Structure (SMILES)	herbicidal effect on O: lambsquarters
CCOC(=O)Oc1c(C)nn(C)c(=O)c1-c1c(-c2ccc(OC(F)F)cc2)sc2ccc(F)cc12 [2-292]	5 (Herbicidal rate of 90% or more (almost completely withered))
Cc1nn(C)c(=O)c(-c2c(-c3ccc(OC(F)F)cc3)sc3ccc(F)cc23)c1OC(=O)OCCCl [2-293]	5 (Herbicidal rate of 90% or more (almost completely withered))

test system: green foxtail; assay: Test Example 4: herbicidal effect by soil treatment (Table 19, symbol G); assay type: in vivo, green foxtail (Setaria viridis); settings: amount of applied herbicide 320 g/ha
Method in brief: as §1

Structure (SMILES)	herbicidal effect on G: green foxtail
CCOC(=O)Oc1c(C)nn(C)c(=O)c1-c1c(-c2ccc(OC(F)F)cc2)sc2ccc(F)cc12 [2-292]	5 (Herbicidal rate of 90% or more (almost completely withered))
Cc1nn(C)c(=O)c(-c2c(-c3ccc(OC(F)F)cc3)sc3ccc(F)cc23)c1OC(=O)OCCCl [2-293]	5 (Herbicidal rate of 90% or more (almost completely withered))

test system: Italian ryegrass; assay: Test Example 5: herbicidal effect by foliage application, plastic box (Table 20, symbol K); assay type: in vivo, Italian ryegrass (Lolium multiflorum); settings: foliage application, AAH 320 g/ha, evaluated three weeks after application
Method in brief: as §2

Structure (SMILES)	K: Italian ryegrass, herbicidal effect (criteria 0-5)
CCOC(=O)Oc1c(C)nn(C)c(=O)c1-c1c(-c2ccc(OC(F)F)cc2)sc2ccc(F)cc12 [2-292]	5 (Herbicidal rate of 90% or more (almost completely withered))
Cc1nn(C)c(=O)c(-c2c(-c3ccc(OC(F)F)cc3)sc3ccc(F)cc23)c1OC(=O)OCCCl [2-293]	5 (Herbicidal rate of 90% or more (almost completely withered))

test system: persian speedwell; assay: Test Example 4: herbicidal effect by soil treatment (Table 19, symbol R); assay type: in vivo, Persian speedwell (Veronica persica); settings: amount of applied herbicide 320 g/ha
Method in brief: as §1

Structure (SMILES)	herbicidal effect on R: persian speedwell
CCOC(=O)Oc1c(C)nn(C)c(=O)c1-c1c(-c2ccc(OC(F)F)cc2)sc2ccc(F)cc12 [2-292]	5 (Herbicidal rate of 90% or more (almost completely withered))
Cc1nn(C)c(=O)c(-c2c(-c3ccc(OC(F)F)cc3)sc3ccc(F)cc23)c1OC(=O)OCCCl [2-293]	5 (Herbicidal rate of 90% or more (almost completely withered))

test system: southern crabgrass; assay: Test Example 4: herbicidal effect by soil treatment (Table 19, symbol F); assay type: in vivo, southern crabgrass (Digitaria ciliaris); settings: amount of applied herbicide 320 g/ha
Method in brief: as §1

Structure (SMILES)	herbicidal effect on F: southern crabgrass
CCOC(=O)Oc1c(C)nn(C)c(=O)c1-c1c(-c2ccc(OC(F)F)cc2)sc2ccc(F)cc12 [2-292]	3 (Herbicidal rate of 40% or more and less than 70%)
Cc1nn(C)c(=O)c(-c2c(-c3ccc(OC(F)F)cc3)sc3ccc(F)cc23)c1OC(=O)OCCCl [2-293]	4 (Herbicidal rate of 70% or more and less than 90%)

test system: chickweed; assay: Test Example 5: herbicidal effect by foliage application, plastic box (Table 20, symbol P); assay type: in vivo, common chickweed (Stellaria media); settings: foliage application, AAH 320 g/ha, evaluated three weeks after application
Method in brief: as §2

Structure (SMILES)	P: chickweed, herbicidal effect (criteria 0-5)
CCOC(=O)Oc1c(C)nn(C)c(=O)c1-c1c(-c2ccc(OC(F)F)cc2)sc2ccc(F)cc12 [2-292]	5 (Herbicidal rate of 90% or more (almost completely withered))
Cc1nn(C)c(=O)c(-c2c(-c3ccc(OC(F)F)cc3)sc3ccc(F)cc23)c1OC(=O)OCCCl [2-293]	5 (Herbicidal rate of 90% or more (almost completely withered))

test system: redroot pigweed; assay: Test Example 5: herbicidal effect by foliage application, plastic box (Table 20, symbol N); assay type: in vivo, redroot pigweed (Amaranthus retroflexus); settings: foliage application, AAH 320 g/ha, evaluated three weeks after application
Method in brief: as §2

Structure (SMILES)	N: redroot pigweed, herbicidal effect (criteria 0-5)
CCOC(=O)Oc1c(C)nn(C)c(=O)c1-c1c(-c2ccc(OC(F)F)cc2)sc2ccc(F)cc12 [2-292]	5 (Herbicidal rate of 90% or more (almost completely withered))
Cc1nn(C)c(=O)c(-c2c(-c3ccc(OC(F)F)cc3)sc3ccc(F)cc23)c1OC(=O)OCCCl [2-293]	5 (Herbicidal rate of 90% or more (almost completely withered))

test system: wild oat; assay: Test Example 4: herbicidal effect by soil treatment (Table 19, symbol I); assay type: in vivo, wild oat (Avena fatua); settings: amount of applied herbicide 320 g/ha
Method in brief: as §1

Structure (SMILES)	herbicidal effect on I: wild oat
CCOC(=O)Oc1c(C)nn(C)c(=O)c1-c1c(-c2ccc(OC(F)F)cc2)sc2ccc(F)cc12 [2-292]	0 (Herbicidal rate of 5% or less (almost no effect))
Cc1nn(C)c(=O)c(-c2c(-c3ccc(OC(F)F)cc3)sc3ccc(F)cc23)c1OC(=O)OCCCl [2-293]	0 (Herbicidal rate of 5% or less (almost no effect))

test system: barnyard grass; assay: Test Example 4: herbicidal effect by soil treatment (Table 19, symbol H); assay type: in vivo, barnyard grass (Echinochloa crus-galli); settings: amount of applied herbicide 320 g/ha
Method in brief: as §1

Structure (SMILES)	herbicidal effect on H: barnyard grass
CCOC(=O)Oc1c(C)nn(C)c(=O)c1-c1c(-c2ccc(OC(F)F)cc2)sc2ccc(F)cc12 [2-292]	5 (Herbicidal rate of 90% or more (almost completely withered))
Cc1nn(C)c(=O)c(-c2c(-c3ccc(OC(F)F)cc3)sc3ccc(F)cc23)c1OC(=O)OCCCl [2-293]	5 (Herbicidal rate of 90% or more (almost completely withered))
